Source: ChEMBL document CHEMBL4651402, “Screening of ~5500 FDA-approved drugs and clinical candidates for anti-SARS-CoV-2 activity” (2021)

Tested on: SARS-CoV-2
Assay: microbe, parasite or virus in culture
Conditions: Severe acute respiratory syndrome coronavirus 2, Vero C1008, 48 h

SMILES	IC50 [µM]	IC50 (read-out: pIC50 (converted)) [µM]
OC(CCN1CCCC1)(c1ccccc1)C1CCCCC1 (centres undefined) [PROCYCLIDINE]	> 20	> 20
O=C(Nc1ccc(C(=O)N2C[C@H]3COCCN3Cc3ccccc32)c(Cl)c1)c1ccccc1-c1ccccc1	> 20	> 20
OCC1CCC(n2cnc3c(O)ncnc32)O1 (centres undefined)	> 20	> 20
CCc1nc(N)nc(N)c1-c1ccc(Cl)c(Cl)c1 [ETOPRINE]	> 20	> 20
O=c1c(O)cc([C@H]2Oc3cc(O)cc(O)c3C[C@H]2O)cc2c([C@H]3Oc4cc(O)cc(O)c4C[C@H]3O)cc(O)c(O)c12 [THEAFLAVIN]	> 20	> 20
O=C1C2CC3CC1CC(O)(C3)C2 [IDRAMANTONE]	> 20	> 20
COc1ccc(-c2cc(=S)ss2)cc1 [ANETHOLTRITHION]	> 20	> 20
COc1ccc(S(=O)(=O)Nc2cccnc2Nc2ccc(O)cc2)cc1 [ABT-751]	> 20	> 20
CN1CCC(OC(c2ccccc2)c2ccccc2)CC1	> 20	> 20
CC(=O)Oc1ccccc1C(=O)Nc1ncc([N+](=O)[O-])s1 [NITAZOXANIDE]	> 20	> 20
CC[C@H]1OC(=O)C[C@@H](O)[C@H](C)[C@@H](O[C@@H]2O[C@H](C)[C@@H](O[C@H]3C[C@@](C)(O)[C@@H](O)[C@H](C)O3)[C@H](N(C)C)[C@H]2O)[C@@H](CC=O)C[C@@H](C)C(=O)/C=C\C(C)=C/[C@@H]1CO[C@@H]1O[C@H](C)[C@@H](O)[C@@H](OC)[C@H]1OC	> 20	> 20
CN(CCCCCCCCCCN(C)C(=O)Oc1cccc([N+](C)(C)C)c1)C(=O)Oc1cccc([N+](C)(C)C)c1	> 20	> 20
COc1ccc(-n2nc3c4c([nH]cc-3c2=O)CCCCC4)cc1	> 20	> 20
CC(=O)OC1CC2CCC1(C)C2(C)C (centres undefined)	> 20	> 20
CCC(=O)NS(=O)(=O)c1ccc(NC(=O)COc2ccc(Cl)cc2C(=O)c2cc(Cl)cc(C#N)c2)c(C)c1 [GW-695634]	> 20	> 20
N[C@H](Cc1ccc(F)cc1)C(=O)O	> 20	> 20
COC(=O)Nc1nc2ccc(C(=O)C3CC3)cc2[nH]1 [CYCLOBENDAZOLE]	> 20	> 20
COc1ccccc1-c1coc2cc(O)ccc2c1=O	> 20	> 20
COC1=C(OC)C(=O)C(C/C=C(\C)CC/C=C(\C)CC/C=C(\C)CC/C=C(\C)CC/C=C(\C)CC/C=C(\C)CC/C=C(\C)CC/C=C(\C)CC/C=C(\C)CCC=C(C)C)=C(C)C1=O [UBIDECARENONE]	> 20	> 20
CCN(CC)CC(C)(C)COC(=O)c1ccc(N)cc1	> 20	> 20
Cc1cc(/C=C\C#N)cc(C)c1Nc1ccnc(Nc2ccc(C#N)cc2)n1	> 20	> 20

SMILES	IC50 [µM]	IC50 (read-out: pIC50 (converted)) [µM]
CCCNS(=O)(=O)Nc1ncnc(OCCOc2ncc(Br)cn2)c1-c1ccc(Br)cc1	> 20	> 20
CO[C@@H]1[C@@H](O[C@@H]2O[C@H](C)[C@@H](O[C@H]3C[C@@](C)(O)[C@@H](OC(=O)CC(C)C)[C@H](C)O3)[C@H](N(C)C)[C@H]2O)[C@@H](CC=O)C[C@@H](C)[C@@H](O)/C=C/C=C/C[C@@H](C)OC(=O)C[C@H]1OC(C)=O [JOSAMYCIN]	> 20	> 20
C=CC(=O)N1C[C@H](Nc2ncnc3[nH]ccc23)CC[C@@H]1C [RITLECITINIB]	> 20	> 20
CNc1ccccc1C(=O)O	> 20	> 20
Cc1nc2n(c(=O)c1CCN1CCC(c3noc4cc(F)ccc34)CC1)CCCC2 [RISPERIDONE]	> 20	> 20
C[C@H]1NC(=O)CO[C@@H]1c1ccccc1 (relative stereo)	> 20	> 20
CC(Cc1ccc(C(C)(C)C)cc1)CN1CCCCC1 (centres undefined) [FENPROPIDIN]	> 20	> 20
C=CCNC1=C2C[C@@H](C)C[C@H](OC)[C@H](O)[C@@H](C)/C=C(/C)[C@H](OC(N)=O)[C@@H](OC)/C=C\C=C(\C)C(=O)NC(=CC1=O)C2=O	> 20	> 20
Cn1nc(-c2cccc(F)c2)n(C)c1=S [SURITOZOLE]	> 20	> 20
O=C(Nc1ccc(Cl)cc1)Nc1ccc(Cl)c(Cl)c1 [TRICLOCARBAN]	> 20	> 20
O=C(O)CCc1c[nH]c2ccccc12 [INDOLYLPROPIONIC ACID]	> 20	> 20
COc1ccccc1C(=O)NCCc1ccc(S(=O)(=O)NC(=O)NC2CCCC2)cc1 [GLISENTIDE]	> 20	> 20
COc1ccc2c3c1O[C@H]1[C@@H](O)CCC4[C@@H](C2)N(C)CC[C@@]341 (some centres undefined)	> 20	> 20
COc1ccc2c(OC)c3ccoc3nc2c1OC [SKIMMIANINE]	> 20	> 20
CC12CCC3C(CCC4CC(O)CCC43C)C1CCC2=O (centres undefined)	> 20	> 20
CCn1ccc(NS(=O)(=O)c2ccc(N)cc2)nc1=O [SULFACYTINE]	> 20	> 20
COc1cc(F)c(F)c(Nc2ccc(I)cc2F)c1NS(=O)(=O)C1(C[C@H](O)CO)CC1 [REFAMETINIB]	> 20	> 20
CCC(=O)OC(CC(=O)O)C[N+](C)(C)C (centres undefined)	> 20	> 20
Cc1ncc([N+](=O)[O-])n1CC(O)CCl (centres undefined) [ORNIDAZOLE]	> 20	> 20
O=C(Oc1ccccc1C(=O)O)c1ccccc1O [SALSALATE]	> 20	> 20
CC(=O)OCC1=C(C(=O)O)N2C(=O)C(NC(=O)CSc3ccncc3)C2SC1 (centres undefined)	> 20	> 20

SMILES	IC50 [µM]	IC50 (read-out: pIC50 (converted)) [µM]
CCCNC(C)C(=O)Nc1c(C)csc1C(=O)OC (centres undefined) [ARTICAINE]	> 20	> 20
O=C(/C=C\n1cnc(-c2cc(C(F)(F)F)cc(C(F)(F)F)c2)n1)NNc1cnccn1 [SELINEXOR]	> 20	> 20
Cc1nccn1Cc1cc(-c2ccc(F)c(C(F)F)c2)cnn1 [EVT-101 FREE BASE]	> 20	> 20
NC(=O)NC(CC(=O)O)C(=O)O (centres undefined)	> 20	> 20
Nc1c(CC(=O)O)cccc1C(=O)c1ccccc1 [AMFENAC]	> 20	> 20
C=C1C(=O)[C@]23[C@H](O)[C@H]1CC[C@H]2[C@@]12CO[C@]3(O)[C@@H](O)[C@@H]1C(C)(C)CC[C@@H]2O [ORIDONIN]	> 20	> 20
CN[C@H]1CCN(c2cc(NCC3CC3)nc(N)n2)C1	> 20	> 20
COc1ccc(CCN)cc1OC	> 20	> 20
COc1c2c(cc3c1C(O)N(C)CC3)OCO2 (centres undefined)	> 20	> 20
CN/C(=N\CCSCc1nc[nH]c1C)NC#N [CIMETIDINE]	> 20	> 20
CN(C)C1CCc2[nH]c3ccccc3c2C1 (centres undefined) [CYCLINDOLE]	> 20	> 20
NC(=S)N/N=C/c1ccncc1	> 20	> 20
CCCCCCCCCCCCCC(=O)O [MYRISTIC ACID]	> 20	> 20
C=C1C(=O)O[C@@H]2[C@H]3C(C)=CC[C@@]34O[C@@]4(C)CC[C@@H]12 [ARGLABIN]	> 20	> 20
C[C@H]([C@@H](N)C(=O)N[C@@H](C(=O)O)[C@@H]1O[C@H](n2ccc(=O)[nH]c2=O)[C@@H](O)[C@H]1O)[C@@H](O)c1ccc(O)cn1	> 20	> 20
C[C@@H]1CC[C@@]2(OC1)OC1CC3C4CC[C@H]5CC(O)CC[C@]5(C)C4CC[C@]3(C)C1[C@@H]2C (some centres undefined)	> 20	> 20
COC(=O)c1ccc(O)cc1 [METHYLPARABEN]	> 20	> 20
C[C@@H]1CC2C3CCC4=CC(=O)C=CC4(C)[C@@]3(Cl)C(Cl)CC2(C)[C@@]1(O)C(=O)CO (some centres undefined)	> 20	> 20
Cc1c(CN(C)C(=O)/C=C/c2cnc3c(c2)CCC(=O)N3)oc2ccccc12 [AFN-1252]	> 20	> 20
C[C@H](CCC(=O)NCCS(=O)(=O)O)[C@H]1CC[C@H]2[C@@H]3[C@@H](O)C[C@@H]4C[C@H](O)CC[C@]4(C)[C@H]3CC[C@]12C [TAURURSODIOL]	> 20	> 20
